The subject of assay [1] is primary cultured gastric mucosal cells. The experiment in a line: Wound repair model with primary cultured gastric mucosal cells. Format: cell-based, rabbit. As to the method: Primary cultured gastric mucosal cells were prepared by mechanically peeling and mincing the gastric mucosa of a rabbit having a body weight of 2 kg and then digesting the minced gastric mucosa with 0.07% collagenase. The primary cultured gastric mucosal cells were cultured at a cell concentration of 3.3×10^5 cells/ml in F-12 culture medium containing 10% fetal calf serum added therein. For this cultivation, a culture dish (60 mm in diameter) coated with collagen type I was used. […] Using an anti-BrdU antibody, the cells in the S phase were stained to identify proliferated cells.
Their effects on the process of restoration were measured under the above-described parameters. […] In each of the control group and the medicament-added groups, the area of the wounded region was measured at the 0th hour, 12th hour, 24th hour, 36th hour and 48th hour. The measurement results will be given in this order.
The control group and the groups added with the medicament at the respective concentrations were each subjected to the experiment with n=5. The results will each be presented as a (mean±S. D.) mm2. A test of significance was conducted relative to the control group. * stands for p<0.05, ** for p<0.01, *** for p<0.001. A further test of significance was conducted relative to a group added with 10 ng/ml of EGF. + stands for p<0.05, and ++ for <0.01.

Another assay deals with fractured tibia. The experiment in a line: Tibia fracture model, histology on the 7th day. Format: in vivo, Wistar rat. The settings on record: 5 mg/kg i.p. once a day, 7 days. As to the method: The tibia of each Wistar (body weight: 260-330 g) was broken manually and stabilized in situ by using a 22G syringe needle as an intramedullary nail under anesthesia by pentobarbital. The rats were divided into two groups. To one of the groups, 2-piperazino-6-methyl-5-oxo-5,6-dihydro(7H)pyrro[3,4-d]pyrimidine maleate was intraperitoneally administered at 5 mg/kg once a day everyday for 7 days from immediately after the fracture. The other group was used as a control group, to which physiological saline was administered likewise. The rats in both the groups were sacrificed on the 7th day. The broken tibia of each rat was […], embedded in paraffin and then subjected to HE staining. The texture of the fractured site was pathohistologically examined. In the control group, proliferation mesenchymal cells, which were considered to be derived from periosteal cells, and membranous ossification of an osteoid tissue were observed centering around the fractured site on the 7th day after the fracture. Further, honeycomb-shaped proliferation of chondrocytes in a small number associated with formation of a cartilage matrix was observed inside the mesenchymal cells.

The test system of another assay is bone defect (tibia). The experiment in a line: Rat bone defect model, formation of hyaline cartilage matrix. It counts as in vivo. The settings on record: bFGF (0.5 μg) + compound (0.5 mg) pellet, 7th day, vs bFGF pellet. From the text:
Action of 2-piperazino-6-methyl-5-oxo-5,6-dihydro(7H)pyrro[3,4-d]pyrimidinemaleate on in vivo chondrogenesis was studied in detail by preparing a rat bone defect model which permits observation of bFGF-derived formation of a hyaline cartilage matrix. Embedment of a bFGF-containing pellet in a bone defect of the model permits easy observation of formation of a hyaline cartilage matrix under the periosteum around the bone defect. Rats were divided into three groups. The rats in one of the groups were each embedded in a formed bone defect (diameter: 2.6 mm) thereof with a hydroxyethyl methacrylate pellet (10 mg) which contained bFGF (0.5 μg). The rats in another one of the groups were each embedded likewise with a hydroxyethyl methacrylate pellet (10 mg) which contained bFGF (0.5 μg) and the invention compound (0.5 mg). The rats in the remaining group, that is, a control group were each embedded similarly with a pellet which contained physiological saline. After the rats in all the three groups were sacrificed seven days later, action of bFGF or the invention compound on the process of chondrogenesis on enchondral ossification around the bone defect was investigated. On the 7th day after the formation of the bone defect, the tibia of each rat was histologically examined around the bone defect.

Where a name gives a salt, the structure may show the parent alone.

Consider `CN1Cc2nc(N3CCNCC3)ncc2C1=O` [Compound B, 2-piperazino-6-methyl-5-oxo-5,6-dihydro(7H)pyrro[3,4-d]pyrimidine maleate], for which the “area of the wounded region (mean±S.D.)” value in assay [1] (EGF + 0.01 mM compound, 0th hour) is recorded as 2.06±0.04 mm2; in assay [1] (EGF + 0.01 mM compound, 12th hour) it was 0.92±0.05 mm2; in assay [1] (EGF + 0.01 mM compound, 24th hour), 0.38±0.05 mm2; in assay [1] (EGF + 0.01 mM compound, 36th hour) it was 0.07±0.04 mm2; in assay [1] (EGF + 0.01 mM compound, 48th hour), 0 mm2; in assay [1] (EGF + 0.1 mM compound, 0th hour) it was 2.06±0.04 mm2. Also, the “area of the wounded region (mean±S.D.)” value in assay [1] (EGF + 0.1 mM compound, 12th hour) was 0.83±0.05 mm2; in assay [1] (EGF + 0.1 mM compound, 24th hour), 0.29±0.07 mm2; in assay [1] (EGF + 0.1 mM compound, 36th hour), 0 mm2; in assay [1] (EGF + 0.1 mM compound, 48th hour), 0 mm2. In assay [1] (compound 0.01-0.1 mM with EGF), the “effect on EGF-induced acceleration of cell restoration” value is “further promoted the EGF-induced acceleration of cell restoration in a concentration-dependent fashion”. The repairing effects entry in assay [1] (compound alone 0.01-0.1 mM, absence of EGF) is “did not show repairing effects in the absence of EGF”. The “proliferation of mesenchymal cells at the fractured site” value in the assay with fractured tibia is given as “marked proliferation of mesenchymal cells”. In addition, in the assay with fractured tibia (vs control group), the “proliferation of chondrocytes associated with formation of a hyaline cartilage matrix enchondral ossification” value is listed as “in a quantity apparently much greater than that of the control group”. For the same molecule, in the assay with bone defect (tibia), the “formation of a hyaline cartilage matrix” value is given as “in an amount apparently larger than that formed in the group embedded with the bFGF-containing pellet”.

These data come from patent US5976523A, “Method for healing compromised tissues using pyrimidine derivatives” (Mitsui Pharmaceuticals, Inc., priority 1995, dated 1999).
